# Test system: 282377-053-R-J1-PDC complex spheroid viability
# Assay: Anticancer human tumor 282377-053-R-J1-PDC patient-derived colon adenocarcinoma cell line growth inhibition [RAS]
# Settings: for IC50: curve of first compound; for viability, T/C: stronger effect = lower value
# Excerpt: RAS pathway inhibitors in Combinations in Complex Spheroids
# A high-throughput screen of multi-cell type tumor spheroids was designed to identify active combinations of RAS pathway inhibitors and targeted small molecules. Complex spheroids include a stromal component modeled by human endothelial cells (HUVEC) and fibroblasts modeled by human mesenchymal stem cells (MSCs). The concentration ranges selected for each drug and investigational agent were based upon clinically achievable concentrations if the clinical Cmax of the agent was known.
# Compounds. The drugs and investigational agents: abemaciclib (NSC768073), cobimetinib (NSC768068), divarasib (GDC6063, NSC841802), docetaxel (NSC628503), GDC-1971 (RLY-1971, NSC841576), gemcitabine (NSC613327), inavolisib (NSC800729), ipatasertib (NSC767898), KB-0742 (NSC834161), MRTX-1133 (NSC836407), osimertinib (NSC779217), RMC-4630 (NSC839698), RMC-6236 (NSC851965), RMC-6291 (NSC852671), Ro-3306 (NSC812927), sapanisertib (NSC764658), SN-38 (NSC673596), staurosporine (NSC755774), SY5609 (NSC837396), and tovorafenib (DAY101, NSC766906), were obtained from the National Cancer Institute (NCI) Developmental Therapeutics Program Chemical Repository. The FDA-approved anticancer drug set is available from the NCI Developmental Therapeutics Program. […] The stock solutions were prepared in dimethyl sulfoxide (DMSO, Sigma-Aldrich, St. Louis, MO, cat. D2650) at 800-fold the tested concentration and stored at -70 degrees C prior to their use. All drugs and investigational agents were tested over a range starting from a high concentration at or near the clinical Cmax and decreasing in half-log increments. If the clinical Cmax for an agent had not been determined, the highest concentration tested was 10 microM.
# Cell Culture. All cells were maintained in an incubator at 37 degrees C and 5% CO2 with 95% humidity. The PDC lines were cultured according to standard operating procedures established by the NCI PDMR. All PDCs were thawed and cultured in Matrigel-coated flasks prepared with a working solution of 1X Ham's F-12 nutrient mix, without supplementation (Invitrogen, Waltham, MA, cat. 11765054), 100 U/mL penicillin-streptomycin (Invitrogen, cat. 15140122), and 2.5% Matrigel (Corning Inc., Corning, NY, cat. 354248) for the first three passages. The 362531-283-R-J2-PDC and 782815-120-R-J1-PDC lines were cultured in 6C/Colon 1B media, which includes advanced DMEM/F-12 (Thermo Fisher Scientific, cat. 12634028), 10 mM HEPES (Thermo Fisher Scientific, cat. 15630080), 1X GlutaMAX supplement (Thermo Fisher Scientific, cat. 35050061), 0.1 mg/mL primocin (InvivoGen, San Diego, CA, cat. ant-pm-2), 10% defined fetal bovine serum, heat inactivated (HyClone Laboratories Inc., Logan, UT, cat. SH30070.03HI), 50% L-WRN conditioned media (ATCC, cat. CRL-3276), 1.25 mM N-Acetyl-L-cysteine (Sigma-Aldrich, cat. A9165), 10 mM nicotinamide (Sigma-Aldrich, cat. N0636), 1X B-27 supplement (Thermo Fisher Scientific, cat. 17504044), 1X N-2 supplement (Thermo Fisher Scientific, cat. 17502048), 50 ng/mL human EGF (Thermo Fisher Scientific, cat. PHG0311), and 10 microM Y-27632 dihydrochloride (Tocris Bioscience, cat. 1254). The K12877-001-R-J1-PDC line was cultured in 6I media, which includes all 6C/Colon 1B media plus 10 ng/mL human FGF-10 (PeproTech, cat. 100-26), 1 ng/mL human FGF-2 (PeproTech, cat. 100-18B), 1 µM prostaglandin E2 (Tocris Bioscience, cat. 2296), […] hydrocortisone (Sigma-Aldrich, cat. H4001), and […] bovine insulin (Sigma-Aldrich, cat. I6634). The K86415-001-R-J1-PDC line was cultured in 6D media, which includes all 6C/Colon 1B media components minus the L-WRN conditioned media. The 485176-168-R4-J1-PDC was cultured in PANC media, which includes all 6C/Colon 1B media plus 100 ng/mL human FGF-10 (PeproTech, cat. 100-26), 500 nM SB-431542 (Selleckchem, cat. S1067), and 10 nM gastrin (Tocris Bioscience, cat. 3006). […]
# [1] = second compound 0.0316 µM, first compound 0.0316 µM
# [2] = second compound 0.0316 µM, first compound 0.1 µM
# [3] = second compound 0.0316 µM, first compound 0.316 µM
# [4] = second compound 0.0316 µM, first compound 1 µM
# [5] = second compound 0.1 µM, first compound 0.0316 µM
# [6] = second compound 0.1 µM, first compound 0.1 µM
# [7] = second compound 0.1 µM, first compound 0.316 µM
# [8] = second compound 0.1 µM, first compound 1 µM
# [9] = second compound 0.316 µM, first compound 0.0316 µM
# [10] = second compound 0.316 µM, first compound 0.1 µM
# [11] = second compound 0.316 µM, first compound 0.316 µM
# [12] = second compound 0.316 µM, first compound 1 µM
# [13] = second compound 1 µM, first compound 0.0316 µM
# [14] = second compound 1 µM, first compound 0.1 µM
# [15] = second compound 1 µM, first compound 0.316 µM
# [16] = second compound 1 µM, first compound 1 µM
# [17] = second compound 3.16 µM, first compound 0.0316 µM
# [18] = second compound 3.16 µM, first compound 0.1 µM
# [19] = second compound 3.16 µM, first compound 0.316 µM
# [20] = second compound 3.16 µM, first compound 1 µM
# [21] = second compound 10 µM, first compound 0.0316 µM
# [22] = second compound 10 µM, first compound 0.1 µM
# [23] = second compound 10 µM, first compound 0.316 µM
# [24] = second compound 10 µM, first compound 1 µM
# 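Also: spheroids exposed to agents for seven days before readout.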
# 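For viability, T/C in this document: luminescence viability as percent of DMSO vehicle control wells.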
smiles,measurement,setting,value
CC(=O)OC12COC1CC(O)C1(C)C(=O)C(O)C3=C(C)C(OC(=O)C(O)C(NC(=O)OC(C)(C)C)c4ccccc4)CC(O)(C(OC(=O)c4ccccc4)C21)C3(C)C (centres undefined) + C#Cc1c(F)ccc2cc(O)cc(-c3ncc4c(N5CC6CCC(C5)N6)nc(OCC56CCCN5CC(F)C6)nc4c3F)c12,IC50,second compound 0.0316 µM,< 31.6 nM
same,IC50,second compound 0.1 µM,< 31.6 nM
same,IC50,second compound 0.316 µM,< 31.6 nM
same,IC50,second compound 1 µM,< 31.6 nM
same,IC50,second compound 3.16 µM,< 31.6 nM
same,IC50,second compound 10 µM,< 31.6 nM
same,"viability, T/C",[1],21.9%
same,"viability, T/C",[2],20.5%
same,"viability, T/C",[3],23.9%
same,"viability, T/C",[4],29.7%
same,"viability, T/C","second compound 0.0316 µM, first compound 3.16 µM",43.1%
same,"viability, T/C","second compound 0.0316 µM, first compound 10 µM",52.1%
same,"viability, T/C",[5],25.4%
same,"viability, T/C",[6],23.1%
same,"viability, T/C",[7],23.4%
same,"viability, T/C",[8],28.7%
same,"viability, T/C","second compound 0.1 µM, first compound 3.16 µM",49.8%
same,"viability, T/C","second compound 0.1 µM, first compound 10 µM",69.4%
same,"viability, T/C",[9],28.6%
same,"viability, T/C",[10],24.7%
same,"viability, T/C",[11],26.7%
same,"viability, T/C",[12],30.2%
same,"viability, T/C","second compound 0.316 µM, first compound 3.16 µM",47.4%
same,"viability, T/C","second compound 0.316 µM, first compound 10 µM",67.2%
same,"viability, T/C",[13],32.6%
same,"viability, T/C",[14],25%
same,"viability, T/C",[15],26.6%
same,"viability, T/C",[16],33%
same,"viability, T/C","second compound 1 µM, first compound 3.16 µM",60.6%
same,"viability, T/C","second compound 1 µM, first compound 10 µM",61.5%
same,"viability, T/C",[17],27.9%
same,"viability, T/C",[18],29.2%
same,"viability, T/C",[19],31.4%
same,"viability, T/C",[20],39.6%
same,"viability, T/C","second compound 3.16 µM, first compound 3.16 µM",58.5%
same,"viability, T/C","second compound 3.16 µM, first compound 10 µM",66%
same,"viability, T/C",[21],32.1%
same,"viability, T/C",[22],31.8%
same,"viability, T/C",[23],41.6%
same,"viability, T/C",[24],49.3%
same,"viability, T/C","second compound 10 µM, first compound 3.16 µM",77.7%
same,"viability, T/C","second compound 10 µM, first compound 10 µM",78.7%
Nc1ccn(C2OC(CO)C(O)C2(F)F)c(=O)n1 (centres undefined) + C#Cc1c(F)ccc2cc(O)cc(-c3ncc4c(N5CC6CCC(C5)N6)nc(OCC56CCCN5CC(F)C6)nc4c3F)c12,IC50,second compound 0.0316 µM,633 nM
same,IC50,second compound 0.1 µM,251 nM
same,IC50,second compound 0.316 µM,440 nM
same,IC50,second compound 1 µM,258 nM
same,IC50,second compound 3.16 µM,544 nM
same,IC50,second compound 10 µM,> 1000 nM
same,"viability, T/C","second compound 0.0316 µM, first compound 0.00316 µM",133%
same,"viability, T/C","second compound 0.0316 µM, first compound 0.01 µM",117%
same,"viability, T/C",[1],85.4%
same,"viability, T/C",[2],79.5%
same,"viability, T/C",[3],59%
same,"viability, T/C",[4],43.1%
same,"viability, T/C","second compound 0.1 µM, first compound 0.00316 µM",96%
same,"viability, T/C","second compound 0.1 µM, first compound 0.01 µM",89.7%
same,"viability, T/C",[5],101%
same,"viability, T/C",[6],76.8%
same,"viability, T/C",[7],44.6%
same,"viability, T/C",[8],37.9%
same,"viability, T/C","second compound 0.316 µM, first compound 0.00316 µM",115%
same,"viability, T/C","second compound 0.316 µM, first compound 0.01 µM",92.5%
same,"viability, T/C",[9],99.4%
same,"viability, T/C",[10],77%
same,"viability, T/C",[11],51.1%
same,"viability, T/C",[12],42.3%
same,"viability, T/C","second compound 1 µM, first compound 0.00316 µM",100%
same,"viability, T/C","second compound 1 µM, first compound 0.01 µM",101%
same,"viability, T/C",[13],107%
same,"viability, T/C",[14],69.6%
same,"viability, T/C",[15],51.3%
same,"viability, T/C",[16],40.2%
same,"viability, T/C","second compound 3.16 µM, first compound 0.00316 µM",89.8%
same,"viability, T/C","second compound 3.16 µM, first compound 0.01 µM",86%
same,"viability, T/C",[17],89.1%
same,"viability, T/C",[18],73.1%
same,"viability, T/C",[19],56.6%
same,"viability, T/C",[20],43.3%
same,"viability, T/C","second compound 10 µM, first compound 0.00316 µM",99.2%
same,"viability, T/C","second compound 10 µM, first compound 0.01 µM",99.3%
same,"viability, T/C",[21],92.8%
same,"viability, T/C",[22],69.8%
same,"viability, T/C",[23],62.5%
same,"viability, T/C",[24],54.5%
